The test system of one experiment is Plasmodium falciparum. Description: Antimalarial activity against Plasmodium falciparum Dd2 at 10 uM incubated for 72 hrs by SYBR green dye based assay relative to control. The class given is functional.
Conditions: not given
As usually defined, the inhibition is the share of the control response that was lost under treatment. High values mean a response far below the control, low ones a response near the control. For the compound `CN1[C@H](c2ccc(Cl)cc2Cl)c2[nH]c3ccccc3c2C[C@H]1C(=O)O`, the inhibition at 10 µM was determined as 65%.

System in a further experiment: not listed separately
Description: Inhibition of Plasmodium falciparum IspD.
Conditions: not given
As usually defined, the IC50 is the point on the concentration scale where inhibition reaches its midpoint. Low values mean higher potency, high ones lower potency. Compound `O=C(O)[C@@H]1Cc2c([nH]c3ccccc23)[C@@H](c2ccccc2)N1` registered an IC50 above 5000 nM.
On the same count and under the same terms, the result for `O=C(O)[C@@H]1Cc2c([nH]c3ccccc23)[C@@H](c2ccc(Br)cc2Cl)N1` reads 34 nM; that for `Cc1cc(Cl)ccc1[C@H]1N[C@H](C(=O)O)Cc2c1[nH]c1ccccc21`, 260 nM; that for `Cc1ccc([C@H]2N[C@H](C(=O)O)Cc3c2[nH]c2ccccc32)c(C)c1`, 1000 nM.
`O=C(O)[C@@H]1Cc2c([nH]c3ccccc23)[C@@H](c2ccc(Cl)cc2)N1`: the midpoint of inhibition, the IC50, lay at 510 nM.
Same read-out and setting: the result for `Cc1ccc([C@H]2N[C@H](C(=O)O)Cc3c2[nH]c2ccccc32)c(Cl)c1` reads 82 nM; that for `O=C(O)[C@@H]1Cc2c([nH]c3ccccc23)[C@@H](c2ccccc2Cl)N1`, 1000 nM.

Another experiment concerns Plasmodium falciparum. Description: Antimalarial activity against Plasmodium falciparum Dd2 incubated for 72 hrs by SYBR green dye based assay. The class given is functional, organism-based. The note with it: Dd2, 72 h.
The EC50 is the midpoint of the concentration-response curve. Read a high EC50 as a need for much substance. `C[C@]1(c2ccc(Cl)cc2Cl)N[C@H](C(=O)O)Cc2c1[nH]c1ccccc21` yielded an EC50 above 10000 nM.
On the same count and under the same terms, the result for `C[C@]1(c2ccccc2Cl)N[C@H](C(=O)O)Cc2c1[nH]c1ccccc21` reads above 10000 nM; that for `O=C(O)[C@@H]1Cc2c([nH]c3ccccc23)CN1Cc1ccc(Cl)cc1Cl`, above 10000 nM.
Turning to `O=C(O)[C@@H]1Cc2c([nH]c3ccccc23)[C@@H](c2ccc(Br)cc2Cl)N1`, the response was half-maximal at 320 nM (EC50).
On the same count and under the same terms, the figure for `O=C(O)[C@@H]1Cc2c([nH]c3ccccc23)[C@]2(CCc3ccccc32)N1` is above 10000 nM; for `O=C(O)[C@H](Cc1c[nH]c2ccccc12)NCc1ccc(Cl)cc1Cl` it is above 10000 nM.
Take `Cc1ccc([C@H]2N[C@H](C(=O)O)Cc3c2[nH]c2ccccc32)c(C)c1`: it took 10000 nM to reach a half-maximal effect (EC50).
As to `C[C@@]1(C(=O)O)Cc2c([nH]c3ccccc23)[C@@H](c2ccc(Cl)cc2Cl)N1` (racemic), the EC50 is above 10000 nM.
For `C[C@]1(c2ccccc2)N[C@H](C(=O)O)Cc2c1[nH]c1ccccc21`, the EC50 was above 10000 nM.
Still for that read-out and setting: the figure for `Cn1c2c(c3ccccc31)C[C@@H](C(=O)O)N[C@@H]2c1ccc(Cl)cc1Cl` is 8000 nM; for `C[C@]1(c2ccc(Cl)cc2)N[C@H](C(=O)O)Cc2c1[nH]c1ccccc21` it is above 10000 nM; for `Cc1ccc([C@H]2N[C@H](C(=O)O)Cc3c2[nH]c2ccccc32)c(Cl)c1` it is 410 nM.

The values are drawn from ChEMBL document CHEMBL4699488, “Probing the B- & C-rings of the antimalarial tetrahydro-β-carboline MMV008138 for steric and conformational constraints” (Bioorg Med Chem Lett, 2020).
